{"source": "patent US20010044404A1", "about": "“Cleaning process and composition” (3M Innovative Properties Company, priority 1995, published 2001)", "key": {"[1]": {"assay": "Pump oil removal with boiling mixed terpenes/perfluorocompound mixture", "settings": "boiling mixture 40 volume % mixed terpenes, 60 volume % fluorinated component", "protocol": "The above-described test coupon was dipped into DuoSeal Pump Oil (available from Sargent-Welch), was immersed in a boiling mixture of 40 volume % of a solvating agent comprising mixed terpenes having a boiling range of 243-274° C. and 60 volume % of alkoxy-substituted perfluorocompound (a cleaning composition of the invention), was cooled for 60 seconds, and was then immersed in mixture vapor for 30 seconds. The percent oil removal was determined in the above-described manner."}, "[2]": {"assay": "Fluorinated oil removal from aluminum coupon", "settings": "Krytox 157FSM, room temperature", "protocol": "Using essentially the same procedure as that described in Examples 8-10, the ability of the alkoxy-substituted perfluorocompounds to remove a fluorinated oil was evaluated. As in the previous Examples, a coupon was immersed in Krytox™ 157FSM perfluoropolyether oil having carboxylic acid end groups (available from DuPont), and the percent oil remaining after immersion in the solvent (at room temperature) was determined."}, "[3]": {"assay": "Ability to dissolve halogenated oils (miscibility)", "assay_type": "physicochemical", "settings": "room temperature", "protocol": "The ability of alkoxy-substituted perfluorocompounds to dissolve several halogenated oils was determined by adding a measured amount of oil to alkoxy-substituted perfluorocompound until the resulting mixture became turbid or phase-split. […] The results (shown in Table 12) indicate that alkoxy-substituted perfluorocompounds have very high ability to dissolve halogenated oils. Thus, the perfluorocompounds can be used as carrier solvents for halogenated oils in the deposition of coatings of such oils on substrate surfaces."}, "[4]": {"assay": "Mineral oil removal from aluminum coupon, sonication in solvent", "settings": "sonicated 1 minute", "protocol": "In the following Examples and Comparative Examples, the cleaning ability of the alkoxy-substituted perfluorocompounds used in the cleaning process of the invention was further evaluated. A 1.28 cm×1.28 cm×0.225 cm wire-wrapped, aluminum coupon was coated with white heavy mineral oil (available from Aldrich Chemical) by immersing the coupon in an oil-filled beaker. The initial amount of the oil on the coupon was determined by weighing it on an analytical balance to the nearest 0.1 mg. The coupon was immersed in a container of solvent and sonicated for 1 minute at the indicated temperature (see Table 3 below for the solvents and temperatures used). The coupon was then weighed again, and the results were recorded in Table 3 as percent oil removal."}, "[5]": {"assay": "Perfluoropolyether oil removal in solvent vapor", "settings": "Brayco 815Z; vapor over boiling liquid, 60 seconds", "protocol": "The above-described aluminum coupon was dipped into Brayco 815Z perfluoropolyether oil (available from Castrol Inc., molecular weight of about 10,000) and then immersed in alkoxy-substituted perfluorocompound vapor (over the boiling liquid) for 60 seconds. The percent oil removal was determined in the above-described manner."}, "[6]": {"assay": "Stability in the presence of oxidant (potassium permanganate in acetone)", "assay_type": "physicochemical", "settings": "refluxed four hours", "protocol": "To assess oxidative stability, potassium permanganate (20 g, 0.126 mole) was dissolved in acetone, and C4F9OCH3 (500 g of 99.9% purity, 2.0 mole) was added to the resulting solution. The solution was refluxed for four hours, with no indication that the permanganate had been consumed (as evidenced by the absence of brown MnO2). The refluxed solution was then distilled into a 500 mL Barrett trap filled with water. The lower fluorochemical phase of the resulting mixture was separated from the upper phase, was washed with four 1.5 L aliquots of water, and was dried by passage through a column of silica gel to yield 471 g of resulting product."}, "[7]": {"assay": "Stability in the presence of acid (96% sulfuric acid, GLC)", "assay_type": "physicochemical", "protocol": "To assess hydrolytic stability under acidic conditions, C4F9OCH3 (15 g, 0.06 mole) was combined with sulfuric acid (10 g of 96% by weight, 0.097 mole) in a 50 mL flask containing a stir bar and fitted with a reflux condenser. The resulting mixture was stirred for 16 hours at room temperature, and then the resulting upper fluorochemical phase was separated from the resulting lower sulfuric acid phase. […] Chem. 49, 4007 (1984), which states that “[f]luorine atoms attached to carbon which also bears an alkyl ether group are known to be labile to electrophilic reagents. They are readily hydrolyzed in concentrated sulfuric acid, thus providing a route to some esters of fluoroacids.”"}, "[8]": {"assay": "Paraffinic oil removal: solvating agent, then rinse in boiling solvent", "settings": "methyl caproate/dipropylene glycol di-n-butyl ether 30 seconds, boiling rinse 30 seconds", "protocol": "The above-described test coupon was dipped into a paraffinic oil comprising a mixture of linear and branched hydrocarbons (DuoSeal Pump Oil, available from Sargent Welch), was immersed in mixed solvating agent comprising approximately 50% methyl caproate and 50% dipropylene glycol di-n-butyl ether for 30 seconds, and was then rinsed in boiling alkoxy-substituted perfluorocompound for 30 seconds. The percent oil removal was determined in the above-described manner."}, "[9]": {"assay": "Mineral oil removal with boiling methyl decanoate/perfluorocompound mixture", "settings": "boiling mixture 40 volume % methyl decanoate, 60 volume % perfluorocompound", "protocol": "The above-described test coupon was dipped in white heavy mineral oil (available from Aldrich Chemical), was immersed in a boiling single-phase mixture of 40 volume % of a solvating agent comprising essentially methyl decanoate and 60 volume % of alkoxy-substituted perfluorocompound (a cleaning composition of the invention) for 60 seconds, was cooled for 60 seconds, and was then immersed in mixture vapor for 30 seconds. The percent oil removal was determined in the above-described manner."}, "[10]": {"assay": "Closed cup flash point ASTM D3278-96", "assay_type": "physicochemical", "protocol": "Various properties were measured for C4F9OCH3, CHClFCF2OCH3, and blends of each ether compound with cosolvent, trans-1,2-dichloroethylene (hereinafter, t-DCE) or n-butyl bromide, at various weight ratios."}, "[11]": {"assay": "Rinse agent in co-solvent cleaning of solder flux", "settings": "solvating agent 1 minute at about 55° C., then 30 seconds in boiling solvent", "protocol": "The ability of alkoxy-substituted perfluorocompounds to function as a rinse agent in a co-solvent cleaning process was evaluated. The above-described aluminum coupon was coated with solder flux (available from Alpha Metals as Alpha 611 rosin, mildly activated flux) by immersing the coupon into a flux-filled beaker. The flux-coated coupon was then dried using a forced air convection drier. The initial amount of the flux on the coupon was determined by weighing it on an analytical balance to the nearest 0.1 mg. The coupon was immersed in a container of a mixed solvating agent comprising approximately 50% methyl decanoate and 50% dipropylene glycol di-n-butyl ether and was sonicated for 1 minute at approximately 55° C. The coupon was then immersed for 30 seconds into alkoxy-substituted perfluorocompound which had been heated to its boiling point. The coupon was weighed again, and the results were recorded in Table 5 below as percent oil removed from the coupon."}}, "data": [{"smiles": "COC(F)(F)C(F)(F)C(F)(F)C(F)(F)F", "note": "[Example C4F9OCH3, perfluorobutyl methyl ether]", "values": [{"measurement": "Percent Soil Removed", "setting": "[1]", "value": 86.4, "unit": "%"}, {"measurement": "% Removed", "setting": "[2]", "value": 99.1, "unit": "%"}, {"measurement": "Miscibility with solute", "setting": "[3]; Brayco 815Z Perfluoropolyether (MW about 10,000)", "value": "Miscible (greater than or equal to 50 percent by volume solubility at room temperature)"}, {"measurement": "Miscibility with solute", "setting": "[3]; Chlorotrifluoroethylene Fluid (Inland 41 Vacuum Pump Oil)", "value": "Miscible (greater than or equal to 50 percent by volume solubility at room temperature)"}, {"measurement": "Miscibility with solute", "setting": "[3]; Fomblin AM-2001 Functionalized Perfluoropolyether", "value": "Miscible (greater than or equal to 50 percent by volume solubility at room temperature)"}, {"measurement": "percent oil removal", "setting": "[4]; 23 ° C.", "value": 60.3, "unit": "%"}, {"measurement": "percent oil removal", "setting": "[4]; 50 ° C.", "value": 98.7, "unit": "%"}, {"measurement": "percent oil removal", "setting": "[4]; 60 ° C.", "value": 99.9, "unit": "%"}, {"measurement": "Percent Soil Removed", "setting": "[5]", "value": 89.9, "unit": "%"}, {"measurement": "Stability in the presence of oxidant", "setting": "[6]", "value": "stable in the presence of the oxidant"}, {"measurement": "Stability in the presence of acid", "setting": "[7]; 96% sulfuric acid, 16 hours at room temperature", "value": "stable in the presence of the acid"}, {"measurement": "Stability in Presence of Acid: conversion to ester", "setting": "[7]; neat ether, sulfuric acid as in Stability in the Presence of Acid section", "value": "no rxn. (0%"}, {"measurement": "Percent Soil Removed", "setting": "[8]", "value": 99.8, "unit": "%"}, {"measurement": "Percent Soil Removed", "setting": "[9]", "value": 94.61, "unit": "%"}, {"measurement": "Closed Cup Flash Point (ASTM D3278-96)", "setting": "[10]; 20 weight % ether, 80 % n-butyl bromide", "value": "none^4"}, {"measurement": "Closed Cup Flash Point (ASTM D3278-96)", "setting": "[10]; 30 weight % ether, 70 % n-butyl bromide", "value": "none^4"}, {"measurement": "Closed Cup Flash Point (ASTM D3278-96)", "setting": "[10]; 50 weight % ether, 50 % n-butyl bromide", "value": "none^4"}, {"measurement": "Closed Cup Flash Point (ASTM D3278-96)", "setting": "[10]; 80 weight % ether, 20 % n-butyl bromide", "value": "none^4"}, {"measurement": "Closed Cup Flash Point (ASTM D3278-96)", "setting": "[10]; 100 weight % ether, 0 % n-butyl bromide, raised to 140° F. (60° C.)", "value": "none^4"}, {"measurement": "% Removed", "setting": "[11]", "value": 100.0, "unit": "%"}]}]}
